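Tested at 5 concentrations; 48 h exposure; 96-well plates; endpoints linearly interpolated, else capped at highest concentration. The concentration for 50% growth inhibition is given as GI50.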 Active and inactive are the calls of the source. Rule as the data show it: active = GI50 up to about 1.1 µM and inactive = higher.
Tests used:
Assay in all cases: NCI-60 cell line screen, 48 h
A549 = test system: A549
ACHN = test system: ACHN
CCRF-CEM = test system: CCRF-CEM
COLO 205 = test system: COLO 205
HCC 2998 = test system: HCC 2998
HCT-116 = test system: HCT-116
HCT-15 = test system: HCT-15
HL-60 = test system: HL-60
HOP-92 = test system: HOP-92
HT-29 = test system: HT-29
NCI-H226 = test system: NCI-H226
NCI-H460 = test system: NCI-H460
RPMI-8226 = test system: RPMI-8226
SF-295 = test system: SF-295
SK-MEL-2 = test system: SK-MEL-2
SK-OV-3 = test system: SK-OV-3
SNB-19 = test system: SNB-19
U-251 = test system: U-251
UACC-62 = test system: UACC-62
UO-31 = test system: UO-31

Structure (SMILES) | GI50 (A549) | GI50 (ACHN) | GI50 (CCRF-CEM) | GI50 (COLO 205) | GI50 (HCC 2998) | GI50 (HCT-116) | GI50 (HCT-15) [µM] | GI50 (HL-60) | GI50 (HOP-92) | GI50 (HT-29) | GI50 (NCI-H226) | GI50 (NCI-H460) | GI50 (RPMI-8226) | GI50 (SF-295) | GI50 (SK-MEL-2) | GI50 (SK-OV-3) | GI50 (SNB-19) | GI50 (U-251) | GI50 (UACC-62) | GI50 (UO-31)
CC(=O)N(C(C)=O)n1c(Cc2ccc(C)cc2)nn(C(C)=O)c1=O | > 100 µM (inactive) | > 100 µM (inactive) | > 100 µM (inactive) | > 100 µM (inactive) | > 100 µM (inactive) | > 100 µM (inactive) | > 100 | > 100 µM (inactive) | > 100 µM (inactive) | > 100 µM (inactive) | > 100 µM (inactive) | > 100 µM (inactive) | > 100 µM (inactive) | > 100 µM (inactive) | > 100 µM (inactive) | > 100 µM (inactive) | > 100 µM (inactive) | > 100 µM (inactive) | > 100 µM (inactive) | > 100 µM (inactive)
O[C@]12C=C(c3nccc4c3[nH]c3ccccc34)[C@@H]3CCN(CCCC/C=C\CC1)C[C@@]31CC3/C=C\CCCCN3[C@H]12 (stereo not given in full) | 0.36 µM (active) | 0.299 µM (active) | 0.74 µM (active) | 0.344 µM (active) | 0.284 µM (active) | 0.243 µM (active) | 0.288 | 0.248 µM (active) | 0.252 µM (active) | 0.119 µM (active) | 0.582 µM (active) | 0.191 µM (active) | 0.31 µM (active) | 0.513 µM (active) | 0.244 µM (active) | 0.0869 µM (active) | 1.23 µM (inactive) | 0.355 µM (active) | 0.0733 µM (active) | 0.199 µM (active)
C[n+]1ccn2c3nc4ccccc4nc3c([O-])c(C#N)c21 | > 29.5 µM (inactive) | > 100 µM (inactive) | > 100 µM (inactive) | > 100 µM (inactive) | > 10 µM (inactive) | > 100 µM (inactive) | > 10 | > 100 µM (inactive) | > 100 µM (inactive) | > 100 µM (inactive) | > 100 µM (inactive) | > 10 µM (inactive) | > 100 µM (inactive) | > 100 µM (inactive) | > 4.65 µM (inactive) | > 100 µM (inactive) | > 100 µM (inactive) | > 100 µM (inactive) | > 100 µM (inactive) | > 100 µM (inactive)

— ChEMBL document CHEMBL1201862, “PubChem BioAssay data set” (2004)
